Results on 87 compounds are retold here after a melting point compilation (Tetko et al.; mined from patent text by program, amines drawn as free bases though some values may be those of a salt).

One may read the melting point as the temperature, or range, at which the solid turns liquid.

Compound `CC1(C)[C@H](/C=C/Cl)[C@@H]1C(=O)O` (relative stereo) showed a melting point of 103 to 105 °C.

On to `Nc1ncc2c(n1)CCC(CNC(=O)[C@@H]1CCCN1C(=O)[C@@H](Cc1ccccc1)NS(=O)(=O)Cc1ccccc1)C2` (some centres not stated), for which the melting point lay within 118 to 121 °C.

For `CN1CC[C@@H](c2c(O)cc(O)c3c(=O)cc(-c4ccc([N+](=O)[O-])cc4Br)oc23)[C@@H]1CO`, the melting point is 186 °C.

For the compound `CC(=O)c1ccc(Nc2ccccc2)cc1`, the melting point stood at 105 °C.

The compound `COC(=O)Nc1c(C#N)cnn1-c1c(Cl)cc(SC(F)(F)F)cc1Cl` had a melting point of 145 °C.

On to `O=C(NCCCNc1c([N+](=O)[O-])cnc2ccccc12)c1ccccc1`, for which the melting point fell in the range of 209 to 211 °C.

For the compound `N=c1sc2ccccc2n1C(C=O)c1ccc(Cl)cc1` (configuration not stated), the melting point worked out at 114 °C.

Take `O=C1N(Cc2csc(-c3ccc(C(F)(F)F)cc3)n2)c2ccccc2C12COc1cc3c(cc12)OCO3` (configuration not stated): the melting point fell in the range of 151 to 153 °C.

For the compound `CCOC(=O)c1c(CN2CCCCC2)nc2cc(OC)c(OC)cc2c1-c1ccc(OC)cc1`, the melting point is 129 to 130 °C.

As for `CCn1c2c(c3ccccc31)S(=O)(=O)N(C)C(C(=O)Nc1ccccn1)=C2O`, the melting point was determined as 232 °C.

For `O=C(CCCCC(=O)Oc1cccc(O)c1O)Oc1cccc(O)c1O`, the melting point lay within 110 to 111 °C.

Take `CCOc1nsnc1S(C)(=O)=O`: the melting point lay within 94 to 95 °C.

For the compound `CC(C)c1cc(C(C)C)c(C=CC(=O)c2ccc(C(C)C)c(OS(N)(=O)=O)c2C(C)C)c(C(C)C)c1`, the melting point was in the range of 144 to 148 °C.

Take `Cc1oc(-c2ccccc2)nc1COc1ccc2c(-c3ccccc3)c(COc3nn(-c4ccccc4)cc3C(=O)O)oc2c1`: the melting point lay in the range of 200 to 201 °C.

On to `C=C(CC1(C)C(=O)CCC1=O)C1=CCCc2cc(OC)ccc21`, for which the melting point fell in the range of 81 to 82 °C.

In the case of `COc1ccc(CCCCCCN)cc1`, the melting point lay in the range of 63 to 65 °C.

`O=[N+]([O-])c1ccc(Cl)c(NC(=S)NCCO)c1` showed a melting point of 158 °C.

For `Cn1cc(C2CCC3(CC2)OCCO3)c2cc(C#N)ccc21`, the melting point is 170 to 172 °C.

For the compound `CC(C)(C)[Si](C)(C)Oc1ccc(NC(=O)CN2CCC(O)(Cc3ccc(Cl)cc3)CC2)cc1`, the melting point is 135 to 136 °C.

Consider `Cc1cc2c(cc1-n1c(C)ccc1C)OC(=O)C2C` (configuration not stated), for which the melting point was in the range of 94 to 95 °C.

The compound `C=C1N(Cc2ccccc2)C(=O)OC12CCN(Cc1ccccc1)CC2` gave a melting point of 113 to 114 °C.

Take `C#Cc1ccc2ncsc2c1`: the melting point was 47.5 to 49 °C.

Turning to `CN1CCCc2ccc(O)cc21`, the melting point was 97 to 98 °C.

Regarding `NC1=Nc2cc(Cl)ccc2Nc2cscc21`, the melting point was 239 to 240 °C.

For `FC(F)(F)C(F)(F)C(F)(F)c1nc(-c2ccc(OCCCn3ccnc3)cc2)no1`, the melting point lay in the range of 60 to 60.5 °C.

In turn, `CC(=O)C1CCC2C3CCC4CC(C)(O)CCC4(C)C3CCC12C` (configuration not stated) registered a melting point of 103 °C.

`CCn1nc(-c2ccccc2)c(C(C)=O)c(Nc2ccc(Br)c3cccnc23)c1=O` displayed a melting point of 148 to 149 °C.

Consider `N#CCN1C(=O)COc2cc(F)c(N3C(=O)C4=C(CCCC4)C3=O)cc21`, for which the melting point is 216 to 220 °C.

In the case of `Cc1ccc(C=Nc2cc(F)ccc2C(=O)O)cc1`, the melting point was 144 to 145 °C.

As to `Cc1ccc(N=Nc2ccc(-c3ccc(-c4ccc(N=Nc5ccc(C)cn5)cc4OC(C)C)o3)c(OC(C)C)c2)nc1`, the melting point lay within 185 to 194 °C.

Compound `CC(C)C(NC(=O)OC(C)(C)C)N1CC(NC(=O)Cc2ccccc2)C1=O` (configuration not stated) gave a melting point of 64 to 66 °C.

As to `NC(CO)(CO)CCc1ccc(C(=O)CCCCc2ccccc2)cc1`, the melting point lay in the range of 126 to 127 °C.

In the case of `Cc1c(C(=O)Nc2ccc(OCC(C)C)c(C#N)c2)cnn1-c1ccc(F)cc1`, the melting point was 177 to 178 °C.

For `N#Cc1[nH]c(-c2c(Cl)cc(C(F)(F)F)cc2Cl)nc1Br`, the melting point is 270 to 272 °C.

Regarding `Cc1nccn1-c1ccc(Sc2cccc(C3(C(N)=O)CCOCC3)c2)cc1`, the melting point was 184 to 185 °C.

As to `NC(=O)/C=C1\CCc2c(Cl)cc(F)cc21`, the melting point fell in the range of 182 to 184 °C.

Consider `CC(C)Cc1ccc2c(c1)C(CO)c1cc(CC(C)C)ccc1-2`, for which the melting point worked out at 105 °C.

The compound `O=c1ccc(C(F)(F)F)cn1Cc1ccccc1NCCCl` yielded a melting point of 93.5 to 95 °C.

Compound `CN(C)CCSc1nnc(SCN2C(=O)c3ccccc3S2(=O)=O)s1` came in with a melting point of 90.5 to 91.5 °C.

The compound `CCCCCCCCCCCCCCC(CCC(=O)OCc1ccccc1)(C(=O)O)C(=O)O` came in with a melting point of 47 to 49 °C.

`N#Cc1c(Cl)nc(OCC(F)(F)F)nc1N1CCc2ccccc2CC1` came in with a melting point of 165 to 167 °C.

`N#CC(=NO)C(=O)c1ccccc1` displayed a melting point of 117 to 119 °C.

`COc1ccc2c(c1)cc(C(=O)O)n2-c1ccccc1` showed a melting point of 197 to 204 °C.

Take `CCOC(=O)C1=CCCCC1S(=O)(=O)Nn1cccc1Cl` (configuration not stated): the melting point is 60 to 61 °C.

`CCOc1ccc(CC)cc1-c1nc2ccc(C(=O)O)cc2c(=O)[nH]1` showed a melting point of over 310 °C.

Consider `Cc1ccc(C2(CCC(=O)O)NC(=O)NC2=O)cc1Cl` (configuration not stated), for which the melting point was 196 to 199 °C.

On to `COC(=O)CCCc1cc2nc(Cl)ccc2n1S(=O)(=O)c1ccc(F)c(F)c1`, for which the melting point lay within 96 to 98 °C.

`Cc1cc(-c2coc3ccc(-c4nnc(C)o4)cc23)ccn1` returned a melting point of 151 to 152 °C.

As to `O=C(COc1ncccn1)NC1CCN(Cc2ccc(Cl)c(Cl)c2)CC1`, the melting point lay in the range of 120 to 122 °C.

Turning to `O=c1[nH]c2ccccc2n1CCCN1CC=C(n2c(=O)[nH]c3ccccc32)CC1`, the melting point was determined as 207 °C.

Turning to `O=C(C1CCCC1)N1C=C2c3ccccc3C3CC2(C1)c1ccccc13` (configuration not stated), the melting point was 185 to 186 °C.

As to `C[C@@H](n1cnc2cc(-c3ccc(C#N)cc3)sc2c1=O)[C@](O)(Cn1cncn1)c1ccc(F)cc1F`, the melting point was in the range of 231 to 232 °C.

With `O=C(CC1CCOCC1)N[C@H]1CC[C@H](CCN2CCN(c3nccc4ccoc34)CC2)CC1`, the melting point is 213 °C.

As to `CC[C@H](COC)n1cc(Br)nc(N2CCc3cc(OC)cc(C)c32)c1=O`, the melting point was 116 to 118 °C.

On to `C=CCOc1ncc(F)c(C2(C(=O)NN)C=CC=C(C)C2)n1` (configuration not stated), for which the melting point is 181 to 185 °C.

In turn, `CNc1nc(-c2cccc(-c3cncc4ccccc34)c2)c2cc(OC)c(OC)cc2n1` returned a melting point of 181 to 183 °C.

`CCCCCC(C)N(Cc1ccnc2ccccc12)C(Nc1ccc(OC)cc1OC)=C1C(=O)OC(C)(C)OC1=O` (configuration not stated): the melting point lay in the range of 197 to 202 °C.

In the case of `CC(=O)N1CC2OC(C3OCCO3)(C1)c1ccccc12` (configuration not stated), the melting point was 122 to 123 °C.

For the compound `CC(=O)Nc1c(C)nc(N)c(C(=O)NNS(=O)(=O)c2ccccc2)c1C`, the melting point was in the range of 216 to 218 °C.

`O=C(Nc1ccc2ccc(-c3ccc(F)cc3)nc2n1)c1cccc(Br)c1` returned a melting point of 210 °C.

As for `COC(=O)c1cc(-c2cccc([N+](=O)[O-])c2)cc2c1OCC2`, the melting point was in the range of 53 to 57 °C.

`CCCc1c(C(=O)C(C)C)c2ccc(C(=O)OC)cc2n1Cc1ccccc1C` registered a melting point of 99 to 102 °C.

On to `CCCCn1cnc2c(OC)nc(Nc3ccc(OCC)nc3)nc21`, for which the melting point was in the range of 174 to 176 °C.

In the case of `O=C1CCN(Cc2ccc(C(F)(F)F)cc2C(F)(F)F)CC1C(c1ccc(F)cc1)c1ccc(F)cc1` (configuration not stated), the melting point lay in the range of 104 to 105 °C.

In turn, `COC(=O)c1ccccc1OCC(O)CNC(C)(C)CNC(N)=O` (configuration not stated) displayed a melting point of 62 °C.

`CCCCCCCCCCOc1ccc(-c2ccc(OCCCCCCCCCC)c(OCCCCCCCCCC)c2)cc1OCCCCCCCCCC` registered a melting point of 85 to 86 °C.

`O=C(O)C1=Cc2cc(Cl)c(OCC(F)(F)F)cc2OC1C(F)(F)F` (configuration not stated) showed a melting point of 174 to 176 °C.

The compound `COC(=O)c1sc2ccccc2c1NC(C)=O` came in with a melting point of 178 to 180 °C.

Compound `O=C(Nc1ccc(C(F)(F)F)cc1)C1=NN(c2ccc(Cl)cc2)C(c2ccco2)C1` (configuration not stated) came in with a melting point of 167 to 171 °C.

Take `CC(=O)Nc1ccc(S(=O)(=O)Nc2nnc(C)s2)cc1`: the melting point is 239 to 240 °C.

`OC1CSC(Oc2cccnc2-c2nnn[nH]2)C(O)C1O` (configuration not stated) gave a melting point of 170 °C.

Compound `Cc1cccc2c1C(=O)N(CO)S2(=O)=O` returned a melting point of 196 to 198 °C.

`CC(=O)NC1(C)CCCc2nc(OCc3ccccc3)ccc21` (configuration not stated) showed a melting point of 153 to 154 °C.

`CCc1c(-c2ccc(O)cc2)c2cc(COCCN3CCCCC3)c3cccc1n32`: the melting point fell in the range of 132 to 134 °C.

The compound `CCCOCCOc1ccc(Oc2ccc3c(c2)C=C(C(=O)O)CCS3(=O)=O)cc1OCC` returned a melting point of 116 to 118 °C.

In the case of `CCC(C)c1c(Cl)nc(NC=O)nc1Cl` (configuration not stated), the melting point was in the range of 92 to 93 °C.

Take `CCOc1cc2cc3c(Nc4cc(OC)c(Cl)cc4C)c(C#N)cnc3cc2cc1OCCN1CCOCC1`: the melting point was 201 to 203 °C.

Take `COc1ccc(-n2ccnc2)cc1C(O)c1c(C)cc(C)cc1C` (configuration not stated): the melting point lay within 187 to 188 °C.

In turn, `CCOC(=O)C1(Nc2ccc(C(O)(C(F)(F)F)C(F)(F)F)cc2)CCC(C(C)(C)C)CC1` (configuration not stated) showed a melting point of 107 °C.

`CCCCOc1ccc(S(=O)(=O)C2(C(=O)O)CCN(Cc3cccc(OC)c3)CC2)cc1` registered a melting point of 175 °C.

For `Cn1c(=O)c(C#N)c(Cl)c2cc(Cl)ccc21`, the melting point came to 256 °C.

Turning to `COC(=O)CCCCCCCC(=O)Nc1c(I)c(C(=O)O)c(I)c(N(C)C(C)=O)c1I`, the melting point is 198 to 203 °C.

`O=C1NC(=O)C(=Cc2cccs2)N1`: the melting point fell in the range of 253 to 255 °C.

Consider `CC(C)(CO)NS(=O)(=O)c1cc(NC(=O)c2cnn3c(C(F)(F)F)cc(-c4ccc(C(F)(F)F)cc4)nc23)c(Cl)s1`, for which the melting point came out at 223 °C.

Compound `CC1CC1C(=O)Nc1ccc(-n2nc(C(F)(F)F)cc2C(F)(F)F)cc1` (configuration not stated) registered a melting point of 172 to 173 °C.

Take `COc1ccccc1N1CCN(CCNc2ccccc2C(N)=O)CC1`: the melting point fell in the range of 134 to 136 °C.

Consider `O=C1CN2C(=O)C(c3ccccc3)c3cc(Cl)cc(c32)N1` (configuration not stated), for which the melting point is 156 to 159 °C.
